This is an account of results in ChEMBL document CHEMBL1177820, “Diazinones as P2 replacements for pyrazole-based cathepsin S inhibitors” (Bioorg Med Chem Lett, 2010).

A short description of data set [1]: Apparent permeability from apical to basolateral side in […] TC7 cells. Format: ADME, cell-based. Conditions: Caco-2.
Data set [2] can be described thus: Apparent permeability from basolateral to apical side in […] TC7 cells. The class given is ADME, cell-based. Conditions: Caco-2.

Regarding `Cn1c(=O)n(C2CCN(CCCn3nccc(-c4ccc(Cl)c(CNC(=O)c5ccc(F)cc5)c4)c3=O)CC2)c2cc(Cl)ccc21`, the Papp A→B – broadly, the apparent permeability from the apical to the basolateral side of a cell layer – in data set [1] was found to be 1.3 ×10⁻⁶ cm/s. Besides, the Papp B→A (usually how fast a substance crosses the layer from the basolateral side) in data set [2] worked out at 1.5 ×10⁻⁶ cm/s.
For `Cn1c(=O)n(C2CCN(CCCn3cncc(-c4ccc(Cl)c(CNC(=O)c5ccc(F)cc5)c4)c3=O)CC2)c2cc(Cl)ccc21`, in that order: 2.5 ×10⁻⁶ cm/s and 2.9 ×10⁻⁶ cm/s.
Turning to `Cn1c(=O)n(C2CCN(CCCn3ccnc(-c4ccc(Cl)c(CNC(=O)c5ccc(F)cc5)c4)c3=O)CC2)c2cc(Cl)ccc21`, in data set [1], the Papp A→B was determined as 0.6 ×10⁻⁶ cm/s. The Papp B→A in data set [2] is 3.7 ×10⁻⁶ cm/s.
